# Data from patent US20230233569A1 (Revolution Medicines, Inc., priority 2020, published 2023).
# How the values were obtained:
# [1] = system: AKT1/2/3 (Ser473) phosphorylation (mTORC2) in MDA-MB-468 cells; experiment: Cell based AlphaLISA assay, mTOR kinase cellular assay: inhibition of p-Akt (S473) in MDA-MB-468 cells; conditions: Homo sapiens, read-out: pIC50 for Inhibition of mTORC1 and mTORC2 Substarte Phosphorylation p-AKT1/2/3-(S473) (converted)
# Method: (§1) Cell Based AlphaLISA Assays for Determining IC50 For Inhibition of P-Akt (S473), P-4E-BP1 (T37/46), and P-P70S6K (T389) in MDA-MB-468 Cells
# (§2) mTOR Kinase Cellular Assay
# (§3) To measure functional activity of mTORC1 and mTORC2 in cells the phosphorylation of 4EBP1 (Thr37/46) and P70S6K (Thr389), and AKT1/2/3 (Ser473) was monitored using AlphaLisa SureFire Ultra Kits (Perkin Elmer). MDA-MB-468 cells (ATCC® HTB-132) were cultured in 96-well tissue culture plates and treated with compounds in the disclosure at concentrations varying from 0.017-1,000 nM for two to four hours at 37° C. Incubations were terminated by removal of the assay buffer and addition of lysis buffer provided with the assay kit. Samples were processed according to the manufacturer's instructions. The Alpha signal from the respective phosphoproteins was measured in duplicate using a microplate reader (Envision, Perkin-Elmer or Spectramax M5, Molecular Devices). Inhibitor concentration response curves were analyzed using normalized IC50 regression curve fitting with control based normalization.
# [2] = system: 4EBP1 (Thr37/46) phosphorylation (mTORC1) in MDA-MB-468 cells; experiment: Cell based AlphaLISA assay, mTOR kinase cellular assay: inhibition of p-4E-BP1 (T37/46) in MDA-MB-468 cells; conditions: Homo sapiens, read-out: pIC50 for Inhibition of mTORC1 and mTORC2 Substarte Phosphorylation p-4E-BP1-(T37/46) (converted)
# Method: as §1, §2, §3
Compound,IC50 [1],IC50 [2]
CO[C@H]1C[C@@H]2CC[C@@H](C)[C@@](O)(O2)C(=O)C(=O)N2CCCC[C@H]2C(=O)O[C@H]([C@H](C)C[C@@H]2CC[C@@H](OC(=O)NCc3cnc(N4CCN(c5ncc(C(=O)NCCOCCOCCOCCOCCC(=O)N6CCc7cc(Cn8nc(-c9cnc%10[nH]ccc%10c9)c9c(N)ncnc98)ccc7C6)cn5)CC4CO)nc3)[C@H](OC)C2)CC(=O)[C@H](C)/C=C(\C)[C@@H](O)[C@@H](OC)C(=O)[C@H](C)C[C@H](C)/C=C/C=C/C=C/1C (some centres unmarked) [Example 41],> 1000 nM,–
CO[C@H]1C[C@@H]2CC[C@@H](C)[C@@](O)(O2)C(=O)C(=O)N2CCCC[C@H]2C(=O)O[C@H]([C@H](C)C[C@@H]2CC[C@@H](OC(=O)NCc3cnc(N4CCN(c5ncc(C(=O)NCCOCCC(=O)N6CCN(c7ncc(C(=O)NCCCCn8nc(-c9ccc%10oc(N)nc%10c9)c9c(N)ncnc98)cn7)CC6)cn5)CC4)nc3)[C@H](OC)C2)CC(=O)[C@H](C)/C=C(\C)[C@@H](O)[C@@H](OC)C(=O)[C@H](C)C[C@H](C)/C=C/C=C/C=C/1C [Example 53],3.16 to 31.6 nM,–
CO[C@H]1C[C@@H]2CC[C@@H](C)[C@@](O)(O2)C(=O)C(=O)N2CCCC[C@H]2C(=O)O[C@H]([C@H](C)C[C@@H]2CC[C@@H](OC(=O)NCc3cnc(N4CCN(c5ncc(C(=O)N6CCN(c7ncc(C(=O)N8CCc9cc(Cn%10nc(-c%11ccc%12oc(N)nc%12c%11)c%11c(N)ncnc%11%10)ccc9C8)cn7)CC6)cn5)CC4)nc3)[C@H](OC)C2)CC(=O)[C@H](C)/C=C(\C)[C@@H](O)[C@@H](OC)C(=O)[C@H](C)C[C@H](C)/C=C/C=C/C=C/1C [Example 60],–,3.16 to 31.6 nM
CO[C@H]1C[C@@H]2CC[C@@H](C)[C@@](O)(O2)C(=O)C(=O)N2CCCC[C@H]2C(=O)O[C@H]([C@H](C)C[C@@H]2CC[C@@H](OC(=O)NCCOCCOCCOCCOCCOCCOCCOCCOCC(=O)N3CCc4cc(Cn5nc(-c6ccc7oc(N)nc7c6)c6c(N)ncnc65)ccc4C3)[C@H](OC)C2)C[C@@H](O)[C@H](C)/C=C(\C)[C@@H](O)[C@@H](OC)C(=O)[C@H](C)C[C@H](C)/C=C/C=C/C=C/1C [Example 72],≤ 3.16 nM,–
CO[C@H]1C[C@@H]2CC[C@@H](C)[C@@](O)(O2)C(=O)C(=O)N2CCCC[C@H]2C(=O)O[C@H]([C@H](C)C[C@@H]2CC[C@@H](OC(=O)NCCOCCOCCOCCOCCOCCOCCOCCOCCC(=O)NCc3ccc(Cn4nc(-c5ccc6oc(N)nc6c5)c5c(N)ncnc54)cc3)[C@H](OC)C2)CC(=O)[C@H](C)/C=C(\C)[C@@H](O)[C@@H](OC)C(=O)[C@H](C)C[C@H](C)/C=C/C=C/C=C/1C [Example 79],31.6 to 1000 nM,–
CO[C@H]1C[C@@H]2CC[C@@H](C)[C@@](O)(O2)C(=O)C(=O)N2CCCC[C@H]2C(=O)O[C@H]([C@H](C)C[C@@H]2CC[C@@H](OC(=O)N3CCc4nc(N5CCN(C(=O)CCOCCN6CCN(c7ncc(C(=O)N8CCc9cc(Cn%10nc(-c%11ccc%12oc(N)nc%12c%11)c%11c(N)ncnc%11%10)ccc9C8)cn7)CC6)CC5)ncc4C3)[C@H](OC)C2)C[C@@H](OC)[C@H](C)/C=C(\C)[C@@H](O)[C@@H](OC)C(=O)[C@H](C)C[C@H](C)/C=C/C=C/C=C/1C [Example 114],> 1000 nM,–
CO[C@H]1C[C@@H]2CC[C@@H](C)[C@@](O)(O2)C(=O)C(=O)N2CCCC[C@H]2C(=O)O[C@H]([C@H](C)C[C@@H]2CC[C@@H](OC(=O)NCc3cnc(N4CCN(C(=O)CCOCCN5CCN(c6ncc(C(=O)N7CCc8cc(Cn9nc(-c%10ccc%11oc(N)nc%11c%10)c%10c(N)ncnc%109)ccc8C7)cn6)CC5)CC4)nc3)[C@H](OC)C2)CC[C@H](C)/C=C(\C)[C@@H](O)[C@@H](OC)C(=O)[C@H](C)C[C@H](C)/C=C/C=C/C=C/1C [Example 115],≤ 3.16 nM,–
CO[C@H]1C[C@@H]2CC[C@@H](C)[C@@](O)(O2)C(=O)C(=O)N2CCCC[C@H]2C(=O)O[C@H]([C@H](C)C[C@@H]2CC[C@@H](OC(=S)NCc3cnc(N4CCN(C(=O)CCOCCN5CCN(c6ncc(C(=O)N7CCc8cc(Cn9nc(-c%10ccc%11oc(N)nc%11c%10)c%10c(N)ncnc%109)ccc8C7)cn6)CC5)CC4)nc3)[C@H](OC)C2)CC(=O)[C@H](C)/C=C(\C)[C@@H](O)[C@@H](OC)C(=O)[C@H](C)C[C@H](C)/C=C/C=C/C=C/1C [Example 116],> 1000 nM,–
CO[C@H]1C[C@@H]2CC[C@@H](C)[C@@](O)(O2)C(=O)C(=O)N2CCCC[C@H]2C(=O)O[C@H]([C@H](C)C[C@@H]2CC[C@@H](OC(=S)NCc3cnc(N4CCN(C(=O)CCOCCN5CCN(c6ncc(C(=O)N7CCc8cc(Cn9nc(-c%10ccc%11oc(N)nc%11c%10)c%10c(N)ncnc%109)ccc8C7)cn6)CC5)CC4)nc3)[C@H](OC)C2)C[C@@H](OC)[C@H](C)/C=C(\C)[C@@H](O)[C@@H](OC)C(=O)[C@H](C)C[C@H](C)/C=C/C=C/C=C/1C [Example 118],3.16 to 31.6 nM,–
CO[C@H]1C[C@@H]2CC[C@@H](C)[C@@](O)(O2)C(=O)C(=O)N2CCCC[C@H]2C(=O)O[C@H]([C@H](C)C[C@@H]2CC[C@@H](OC(=O)NCc3cnc(N4CCN(C(=O)CCOCCN5CCN(c6ncc(C(=O)NCCS(=O)(=O)c7ccc(C(=O)N8CCOc9ccc(-c%10ccc(N)nc%10)cc9C8)c(C)c7F)cn6)CC5)CC4)nc3)[C@H](OC)C2)C[C@@H](OC)[C@H](C)/C=C(\C)[C@@H](O)[C@@H](OC)C(=O)[C@H](C)C[C@H](C)/C=C/C=C/C=C/1C [Example 120],3.16 to 31.6 nM,–
CO[C@H]1C[C@@H]2CC[C@@H](C)[C@@](O)(O2)C(=O)C(=O)N2CCCC[C@H]2C(=O)O[C@H]([C@H](C)C[C@@H]2CC[C@@H](OC(=O)NCc3cnc(N4CCN(C(=O)CCOCCN5CCN(c6ncc(C(=O)NCCS(=O)(=O)c7ccc(C(=O)N8CCOc9ccc(-c%10ccc(N)nc%10)cc9C8)c(C)c7)cn6)CC5)CC4)nc3)[C@H](OC)C2)CC(=O)[C@H](C)/C=C(\C)[C@@H](O)[C@@H](OC)C(=O)[C@H](C)C[C@H](C)/C=C/C=C/C=C/1C [Example 121],> 1000 nM,–
CO[C@H]1C[C@@H]2CC[C@@H](C)[C@@](O)(O2)C(=O)C(=O)N2CCCC[C@H]2C(=O)O[C@H]([C@H](C)C[C@@H]2CC[C@@H](OC(=O)NCc3cnc(N4CCN(C(=O)CCOCCN5CCN(C(=O)CCC(=O)N6CCc7cc(Cn8nc(-c9ccc%10oc(N)nc%10c9)c9c(N)ncnc98)ccc7C6)CC5)CC4)nc3)[C@H](OC)C2)C[C@@H](O)[C@H](C)/C=C(\C)[C@@H](O)[C@@H](OC)C(=O)[C@H](C)C[C@H](C)/C=C/C=C/C=C/1C [Example 129],> 1000 nM,–
CO[C@H]1C[C@@H]2CC[C@@H](C)[C@@](O)(O2)C(=O)C(=O)N2CCCC[C@H]2C(=O)O[C@H]([C@H](C)C[C@@H]2CC[C@@H](OC(=O)NCc3cnc(N4CCN(C(=O)CCOCCN5CCN(C(=O)CCC(=O)N6CCc7cc(Cn8nc(-c9ccc%10oc(N)nc%10c9)c9c(N)ncnc98)ccc7C6)CC5)CC4)nc3)[C@H](OC)C2)C[C@@H](OC)[C@H](C)/C=C(\C)[C@@H](O)[C@@H](OC)C(=O)[C@H](C)C[C@H](C)/C=C/C=C/C=C/1C [Example 130],> 1000 nM,–
CO[C@H]1C[C@@H]2CC[C@@H](C)[C@@](O)(O2)C(=O)C(=O)N2CCCC[C@H]2C(=O)O[C@H]([C@H](C)C[C@@H]2CC[C@@H](OC(=O)NCc3cnc(N4CCN(C(=O)CCOCCN5CCN(c6ncc(C(=O)N7CCc8cc(Cn9nc(-c%10ccc%11oc(N)nc%11c%10)c%10c(N)ncnc%109)ccc8C7)cn6)CC5)[C@@H](C(=O)O)C4)nc3)[C@H](OC)C2)C[C@@H](OC)[C@H](C)/C=C(\C)[C@@H](O)[C@@H](OC)C(=O)[C@H](C)C[C@H](C)/C=C/C=C/C=C/1C [Example 131],3.16 to 31.6 nM,–
CO[C@H]1C[C@@H]2CC[C@@H](C)[C@@](O)(O2)C(=O)C(=O)N2CCCC[C@H]2C(=O)O[C@H]([C@H](C)C[C@@H]2CC[C@@H](OC(=O)NCCOCCOCCN3CCN(CCOCCOCCOCCOCCC(=O)N4CCc5cc(Cn6nc(-c7ccc8oc(N)nc8c7)c7c(N)ncnc76)ccc5C4)CC3)[C@H](OC)C2)C[C@@H](O)[C@H](C)/C=C(\C)[C@@H](O)[C@@H](OC)C(=O)[C@H](C)C[C@H](C)/C=C/C=C/C=C/1C [Example 135],> 1000 nM,–
CO[C@H]1C[C@@H]2CC[C@@H](C)[C@@](O)(O2)C(=O)C(=O)N2CCCC[C@H]2C(=O)O[C@H]([C@H](C)C[C@@H]2CC[C@@H](OC(=O)NCc3cnc(N4CCN(C(=O)CCOCCN5CCN(c6ncc(C(=O)N7CCc8cc(Cn9nc(-c%10ccc%11oc(N)nc%11c%10)c%10c(N)ncnc%109)ccc8C7)cn6)CC5)CC4)nc3)[C@H](OC)C2)C[C@H](N=[N+]=[N-])[C@H](C)/C=C(\C)[C@@H](O)[C@@H](OC)C(=O)[C@H](C)C[C@H](C)/C=C/C=C/C=C/1C [Example 151],> 1000 nM,–
CO[C@H]1C[C@@H]2CC[C@@H](C)[C@@](O)(O2)C(=O)C(=O)N2CCCC[C@H]2C(=O)O[C@H]([C@H](C)C[C@@H]2CC[C@@H](OC(=O)NCCOCCOCCN3C[C@@H]4C[C@H]3CN4CCOCCOCCOCCOCCC(=O)N3CCc4cc(Cn5nc(-c6ccc7oc(N)nc7c6)c6c(N)ncnc65)ccc4C3)[C@H](OC)C2)C[C@@H](O)[C@H](C)/C=C(\C)[C@@H](O)[C@@H](OC)C(=O)[C@H](C)C[C@H](C)/C=C/C=C/C=C/1C [Example 152],31.6 to 1000 nM,–
